Data reported in PMC6594919 (Pharmacology Research & Perspectives, 2019).

Legend:
[1] = In vitro microdialysis with the intravenous EIRUS CVC catheter: drug concentrations in medium and dialysate, relative recovery (RRT, RRU); conditions: perfusate NaCl 0.9% 5 μL/min, 37°C; for Concentration dialysate: EIRUS catheter 5000 Da cutoff, immunoassay, mean (range)
[2] = Unbound drug concentration in the external medium by ultrafiltration (Centrifree) and immunoassay; conditions: mean (range)
[3] = Human plasma, immunoassay, triplicate (gentamicin marked **)
[4] = Human serum, immunoassay, triplicate (gentamicin repeated twice)
[5] = Medium 5: 0.2 mmol/L phosphate buffer with albumin 40 g/L in NaCl 0.9% pH 6.9, immunoassay, triplicate

Row | Structure (SMILES) | Concentration dialysate ([1]; Human plasma, triplicate (gentamicin marked **)) | Concentration dialysate ([1]; Human serum, triplicate (gentamicin repeated twice)) | Concentration dialysate ([1]; Medium 3: 0.2 mmol/L phosphate buffer pH 7.4, triplicate) | Concentration dialysate ([1]; Medium 5: 0.2 mmol/L phosphate buffer with albumin 40 g/L in NaCl 0.9% pH 6.9, triplicate) | Unbound drug concentration medium [2, 3] | Unbound drug concentration medium [2, 4] | Unbound drug concentration medium [2, 5] | Time after which a constant (stable) recovery was observed ([1]; EIRUS catheter, t-test: significant difference prior to 60 minutes, none after) [min] | Unbound drug concentration medium ([2]; Medium 4: 0.2 mmol/L phosphate buffer with albumin 40 g/L pH 7.1, immunoassay, triplicate) | Unbound drug concentration medium ([2]; Medium 6: 0.2 mmol/L phosphate buffer with albumin 40 g/L in NaCl 1.8%, immunoassay, repeated twice)
1 | CNC(C)C1CCC(N)C(OC2C(N)CC(N)C(OC3OCC(C)(O)C(NC)C3O)C2O)O1 (stereo not shown) [Gentamicin] | 8.4 (7.1‐9.6) mg/L | 7.1 (5.8‐8.3) mg/L | 21.5 (21.1‐21.8) mg/L | 7.5 (7.4‐7.8) mg/L | 8.9 (7.7‐10.9) mg/L | 7.7 (6.6‐8.9) mg/L | 7.3 (7.2‐7.4) mg/L |  |  | 
2 | CN[C@H](CC(C)C)C(=O)N[C@H]1C(=O)N[C@@H](CC(N)=O)C(=O)N[C@H]2C(=O)N[C@H]3C(=O)N[C@H](C(=O)N[C@H](C(=O)O)c4cc(O)cc(O)c4-c4cc3ccc4O)[C@H](O)c3ccc(c(Cl)c3)Oc3cc2cc(c3O[C@@H]2O[C@H](CO)[C@@H](O)[C@H](O)[C@H]2O[C@H]2C[C@](C)(N)[C@H](O)[C@H](C)O2)Oc2ccc(cc2Cl)[C@H]1O [Vancomycin] |  |  |  |  | 13.2 (10.0‐14.9) mg/L | 13.2 (13.2‐13.2) mg/L | 10.3 (10.3‐10.4) mg/L | 60 | 6.7 (6.6‐7.4) mg/L | 13.3 (13.3‐13.3) mg/L
